Test results taken from patent US6642217B2, “Triterpenes having human antifungal and antiyeast activity” (Naturtek, LLC, priority 2000, dated 2003).

Experiments:
[1] = test system: Trichophyton mentagrophyte; test: Agar dilution method, growth on Sabouraud dextrose agar slants; format: cell-based, Trichophyton mentagrophytes; design: key to Fungal growth: +++: Maximum Fungal Growth; ++: Moderate Fungal Growth; +: Minimum Fungal Growth; +/−: Very little Fungal Growth; −: No Fungal Growth; conditions: 12th day after inoculation
Procedure: (§1) Agar dilution method. Sabouraud Dextrose Agar (Difco Laboratories, Michigan) was prepared according to the manufacturer's instructions. Five ml was dispensed in a 100×25 mm tube and autoclaved. To each tube containing 5.0 ml of liquid agar at 45° C., 0.5, 0.25, 0.12, or 0.063 ml of a DMSO solution of the compound was added to give the final indicated concentrations in Table 2. The agar was then solidified in slants. Fungal cultures were inoculated. The slants were incubated at 25-28° C. for 10-12 days, and the growth of the fungus was recorded every second day.

Pityrosporum ovale [2] = test: as above; format: cell-based; design: key: +++: Maximum Fungal Growth; ++: Moderate Fungal Growth; +: Minimum Fungal Growth; +/−: Very little Fungal Growth; −: No Fungal Growth; conditions: 12th day after inoculation
Procedure: as §1

Microsporum canis [3] = test: as above; format: cell-based; design: key: +++: Maximum Fungal Growth; ++: Moderate Fungal Growth; +: Minimum Fungal Growth; +/−: Very little Fungal Growth; −: No Fungal Growth; conditions: 12th day after inoculation
Procedure: as §1

Trichophyton rubrum [4] = test: as above; format: cell-based; design: key: +++: Maximum Fungal Growth; ++: Moderate Fungal Growth; +: Minimum Fungal Growth; +/−: Very little Fungal Growth; −: No Fungal Growth; conditions: 12th day after inoculation
Procedure: as §1

Microsporum gypseum = test: as above; format: cell-based; design: key: +++: Maximum Fungal Growth; ++: Moderate Fungal Growth; +: Minimum Fungal Growth; +/−: Very little Fungal Growth; −: No Fungal Growth; conditions: 12th day after inoculation
Procedure: as §1

Microsporum audouinni [5] = test: Direct addition method, solid compound in Sabouraud dextrose agar; format: cell-based, Microsporum audouinii; design: key to Fungal growth: +++: Maximum Fungal Growth; ++: Moderate Fungal Growth; +: Minimum Fungal Growth; +/−: Very little Fungal Growth; −: No Fungal Growth; conditions: 4 mg/mL of agar; 12th day after inoculation
Procedure: (§2) Direct addition method. Sabouraud dextrose agar was prepared according to the manufacturer's instructions and 5.0 ml was dispensed in each 100×25 mm tube. The tubes were autoclaved. To each tube containing 5.0 ml of liquid agar at 45° C., 20 mg of solid test compound was added, to give a final concentration of 4 mg/ml. The agar was solidified in slants. The fungal cultures were then innoculated. The slants were incubated at 25-28 ° C. for 10-12 days, and the growth of the fungus was recorded every second day. The results in Table 2 indicate growth at the 12th day of inoculation.

Trichophyton tonsuran = test: Agar dilution method, growth on Sabouraud dextrose agar slants; format: cell-based, Trichophyton tonsurans; design: key: +++: Maximum Fungal Growth; ++: Moderate Fungal Growth; +: Minimum Fungal Growth; +/−: Very little Fungal Growth; −: No Fungal Growth; conditions: 12th day after inoculation
Procedure: as §1

Epidermophyton floccosum [6] = test: as above; format: cell-based; design: key to Fungal growth: +++: Maximum Fungal Growth; ++: Moderate Fungal Growth; +: Minimum Fungal Growth; +/−: Very little Fungal Growth; −: No Fungal Growth; conditions: 12th day after inoculation
Procedure: as §1

Pityrosporum ovale [7] = test: Direct addition into the Pityrosporum agar; format: cell-based; design: key to Pityrosporum ovale growth: +++: Maximum Growth; ++: Moderate Growth; +: Minimum Growth; +/−: Very Little Growth; −: No Growth; conditions: 4 mg/ml in the agar; 18 hours after inoculation
Procedure: as §2, with “The slants were incubated at 25-28 ° C. for 10-12 days, and the growth of the fungus was recorded every second day. The results in Table 2 indicate growth at the 12th day of inoculation.” left out

Pityrosporum ovale [8] = test: Direct addition method, solid compound in Sabouraud dextrose agar; format: cell-based; design: key: +++: Maximum Fungal Growth; ++: Moderate Fungal Growth; +: Minimum Fungal Growth; +/−: Very little Fungal Growth; −: No Fungal Growth; conditions: 4 mg/mL of agar; 12th day after inoculation
Procedure: as §2

Microsporum canis [9] = test: as above; format: cell-based; design: key: +++: Maximum Fungal Growth; ++: Moderate Fungal Growth; +: Minimum Fungal Growth; +/−: Very little Fungal Growth; −: No Fungal Growth; conditions: 4 mg/mL of agar; 12th day after inoculation
Procedure: as §2

Trichophyton rubrum [10] = test: as above; format: cell-based; design: key: +++: Maximum Fungal Growth; ++: Moderate Fungal Growth; +: Minimum Fungal Growth; +/−: Very little Fungal Growth; −: No Fungal Growth; conditions: 4 mg/mL of agar; 12th day after inoculation
Procedure: as §2

Epidermophyton floccosum [11] = test: as above; format: cell-based; design: key: +++: Maximum Fungal Growth; ++: Moderate Fungal Growth; +: Minimum Fungal Growth; +/−: Very little Fungal Growth; −: No Fungal Growth; conditions: 4 mg/mL of agar; 12th day after inoculation
Procedure: as §2

Microsporum audouinni [12] = test: Agar dilution method, growth on Sabouraud dextrose agar slants; format: cell-based, Microsporum audouinii; design: key: +++: Maximum Fungal Growth; ++: Moderate Fungal Growth; +: Minimum Fungal Growth; +/−: Very little Fungal Growth; −: No Fungal Growth; conditions: 12th day after inoculation
Procedure: as §1

Microsporum audouinii = test: Summary of anti-fungal assays (direct addition, agar dilution, liquid culture); format: cell-based; conditions: stated in words (Tables 1a/1b, text to Table 5)
Procedure: (§3) This example summarizes the results of various other assays of the anti-fungal activity of betulin derivatives. Table 5 summarizes results using different assay methods—direct addition, agar dilution, and direct addition to liquid culture, as disclosed in the previous three Examples. In some cases, only one type of assay was done with a compound. In other cases, the compound was tested by multiple assays.

Trichophyton tonsurans = test: as above; format: cell-based; conditions: stated in words (Tables 1a/1b, text to Table 5)
Procedure: as §3

CC1(C)CCC23CCC4(C)C(CCC5C6(C)CCC(OC(=O)CCCC(=O)O)C(C)(C)C6CCC54C)C2C1OC3 (stereo not shown) [Allobetulin-3-glutarate]
+/−: Fungal growth (Microsporum canis [3]; 25 μg/ml) | Fungal growth (Trichophyton tonsuran; 25 μg/ml) | Fungal growth (Microsporum audouinni [12]; 25 μg/ml)
+: Fungal growth ([1]; 25 μg/ml) | Fungal growth ([1]; 50 μg/ml) | Fungal growth (Microsporum canis [3]; 12.5 μg/ml) | Fungal growth (Trichophyton rubrum [4]; 50 μg/ml) | Fungal growth (Microsporum audouinni [5]) | Fungal growth (Trichophyton tonsuran; 12.5 μg/ml) | Fungal growth (Epidermophyton floccosum [6]; 25 μg/ml) | Fungal growth (Epidermophyton floccosum [6]; 50 μg/ml) | Pityrosporum ovale growth (Pityrosporum ovale [7]) | Fungal growth (Microsporum canis [9]) | Fungal growth (Trichophyton rubrum [10]) | Fungal growth (Microsporum audouinni [12]; 12.5 μg/ml)
−: Fungal growth ([1]; 100 μg/ml) | Fungal growth (Pityrosporum ovale [2]; 100 μg/ml) | Fungal growth (Microsporum canis [3]; 50 μg/ml) | Fungal growth (Microsporum canis [3]; 100 μg/ml) | Fungal growth (Trichophyton rubrum [4]; 100 μg/ml) | Fungal growth (Microsporum gypseum; 100 μg/ml) | Fungal growth (Trichophyton tonsuran; 50 μg/ml) | Fungal growth (Trichophyton tonsuran; 100 μg/ml) | Fungal growth (Epidermophyton floccosum [6]; 100 μg/ml) | Fungal growth (Pityrosporum ovale [8]) | Fungal growth (Epidermophyton floccosum [11]) | Fungal growth (Microsporum audouinni [12]; 50 μg/ml) | Fungal growth (Microsporum audouinni [12]; 100 μg/ml)
++: Fungal growth ([1]; 12.5 μg/ml) | Fungal growth (Trichophyton rubrum [4]; 12.5 μg/ml) | Fungal growth (Trichophyton rubrum [4]; 25 μg/ml) | Fungal growth (Microsporum gypseum; 25 μg/ml) | Fungal growth (Microsporum gypseum; 50 μg/ml) | Fungal growth (Epidermophyton floccosum [6]; 12.5 μg/ml)
+|: Fungal growth (Pityrosporum ovale [2]; 50 μg/ml)
Trichophyton tonsurans: Active against Trichophyton tonsurans (Trichophyton tonsurans)
+++: Fungal growth (Pityrosporum ovale [2]; 12.5 μg/ml) | Fungal growth (Pityrosporum ovale [2]; 25 μg/ml) | Fungal growth (Microsporum gypseum; 12.5 μg/ml)
Microsporum audouinii: Active against Microsporum audouinii (Microsporum audouinii)

CC1(C)CCC23CC[C@@]4(C)C(CCC5[C@@]6(C)CCC(OC(=O)CCC(=O)O)C(C)(C)C6CC[C@]54C)C2C1OC3 (stereo partly shown) [Allobetulin-3-succinate]
−: Fungal growth ([1]; 500 μg/ml) | Fungal growth (Microsporum canis [3]; 250 μg/ml) | Fungal growth (Microsporum canis [3]; 500 μg/ml) | Fungal growth (Trichophyton rubrum [4]; 250 μg/ml) | Fungal growth (Trichophyton rubrum [4]; 500 μg/ml) | Fungal growth (Microsporum gypseum; 500 μg/ml) | Fungal growth (Trichophyton tonsuran; 500 μg/ml) | Fungal growth (Epidermophyton floccosum [6]; 500 μg/ml) | Fungal growth (Pityrosporum ovale [8]) | Fungal growth (Epidermophyton floccosum [11]) | Fungal growth (Microsporum audouinni [12]; 250 μg/ml) | Fungal growth (Microsporum audouinni [12]; 500 μg/ml)
+++: Fungal growth (Pityrosporum ovale [2]; 62.5 μg/ml) | Fungal growth (Pityrosporum ovale [2]; 125 μg/ml) | Fungal growth (Pityrosporum ovale [2]; 250 μg/ml) | Fungal growth (Microsporum gypseum; 62.5 μg/ml)
+: Fungal growth ([1]; 125 μg/ml) | Fungal growth (Pityrosporum ovale [2]; 500 μg/ml) | Fungal growth (Microsporum gypseum; 250 μg/ml) | Fungal growth (Microsporum audouinni [5]) | Fungal growth (Trichophyton tonsuran; 250 μg/ml) | Fungal growth (Epidermophyton floccosum [6]; 250 μg/ml) | Pityrosporum ovale growth (Pityrosporum ovale [7]) | Fungal growth (Microsporum canis [9]) | Fungal growth (Trichophyton rubrum [10])
Microsporum audouinii: Active against Microsporum audouinii (Microsporum audouinii)
++: Fungal growth ([1]; 62.5 μg/ml) | Fungal growth (Microsporum canis [3]; 62.5 μg/ml) | Fungal growth (Microsporum canis [3]; 125 μg/ml) | Fungal growth (Trichophyton rubrum [4]; 62.5 μg/ml) | Fungal growth (Trichophyton rubrum [4]; 125 μg/ml) | Fungal growth (Microsporum gypseum; 125 μg/ml) | Fungal growth (Trichophyton tonsuran; 62.5 μg/ml) | Fungal growth (Trichophyton tonsuran; 125 μg/ml) | Fungal growth (Epidermophyton floccosum [6]; 62.5 μg/ml) | Fungal growth (Epidermophyton floccosum [6]; 125 μg/ml) | Fungal growth (Microsporum audouinni [12]; 62.5 μg/ml) | Fungal growth (Microsporum audouinni [12]; 125 μg/ml)
+/−: Fungal growth ([1]; 250 μg/ml)
